Test results taken from ChEMBL document CHEMBL3882727, “Imidazopyridine Kinase Inhibitors” (2008).
Blank lines part the entries; values can stand above or below the compound they belong to.

Key:
[1] = target: T1, Insulin-like growth factor 1 receptor (Homo sapiens, UniProt P08069); experiment: Inhibition of human GST-rTEV-tagged IGF1R (957 to 1367 residues) expressed in baculovirus infected insect Sf9 cells assessed as decrease in biotin-aminohexyl-AEEEEYMMMMAKKKK-NH2 phosphorylation after 1 hr by fluorometer
Insulin receptor [2] = target: T2, Insulin receptor (Homo sapiens, UniProt P06213); experiment: Inhibition of human GST-rTEV-tagged insulin receptor (979 to 1382 residues) expressed in baculovirus infected insect Sf9 cells assessed as decrease in biotin-aminohexyl-AEEEEYMMMMAKKKK-NH2 phosphorylation after 1 hr by fluorometer
Insulin receptor [3] = target: T2, Insulin receptor; experiment: Inhibition of insulin-induced human insulin receptor autophosphorylation expressed in mouse NIH-3T3 cells preincubated for 2 hrs followed by insulin induction measured after 15 mins by DELFIA; format: cell-based, NIH3T3
[4] = target: T1, Insulin-like growth factor 1 receptor; experiment: Inhibition of IGF1-induced human IGF1R autophosphorylation expressed in mouse NIH-3T3 cells preincubated for 2 hrs followed by IGF-1 induction measured after 15 mins by DELFIA; format: cell-based, NIH3T3
[5] = Toxicity in nude mouse allografted with mouse LISN cells assessed as body weight loss at 50 to 100 mg/kg, qd for 21 days measured during compound dosing; format: organism-based; conditions: 504 h
[6] = Toxicity in nude mouse allografted with mouse LISN cells assessed as body weight loss at 30 mg/kg, qd for 21 days measured during compound dosing relative to control; format: organism-based; conditions: in vivo, 504 h
[7] = Toxicity in nude mouse allografted with mouse LISN cells assessed as body weight loss at 60 mg/kg, qd for 21 days measured during compound dosing relative to control; format: organism-based; conditions: in vivo, 504 h
[8] = Cytotoxicity against human DB cells after 3 days by InCell analyser assay; format: functional, cell-based; conditions: 72 h
[9] = Cytotoxicity against human AGS cells after 3 days by InCell analyser assay; format: functional, cell-based; conditions: 72 h
[10] = Cytotoxicity against human EM2 cells after 3 days by InCell analyser assay; format: functional, cell-based; conditions: EM-2, 72 h
[11] = Cytotoxicity against human ES2 cells after 3 days by InCell analyser assay; format: functional, cell-based; conditions: ES-2, 72 h
[12] = Cytotoxicity against human RD cells after 3 days by InCell analyser assay; format: functional, cell-based; conditions: 72 h
[13] = Cytotoxicity against human SR cells after 3 days by InCell analyser assay; format: functional, cell-based; conditions: 72 h
[14] = Cytotoxicity against human C-4I cells after 3 days by InCell analyser assay; format: functional, cell-based; conditions: 72 h
[15] = Cytotoxicity against human SH4 cells after 3 days by InCell analyser assay; format: functional, cell-based; conditions: SH-4, 72 h
[16] = Cytotoxicity against human BC3 cells after 3 days by InCell analyser assay; format: functional, cell-based; conditions: BC-3, 72 h
[17] = Cytotoxicity against human MJ cells after 3 days by InCell analyser assay; format: functional, cell-based; conditions: 72 h
[18] = Cytotoxicity against human T24 cells after 3 days by InCell analyser assay; format: functional, cell-based; conditions: T-24, 72 h
[19] = Cytotoxicity against human KLE cells after 3 days by InCell analyser assay; format: functional, cell-based; conditions: 72 h
[20] = Cytotoxicity against human 5637 cells after 3 days by InCell analyser assay; format: functional, cell-based; conditions: Homo sapiens, 5637, 72 h
[21] = Cytotoxicity against human MC/CAR cells after 3 days by InCell analyser assay; format: functional, cell-based; conditions: 72 h
[22] = Cytotoxicity against human J82 cells after 3 days by InCell analyser assay; format: functional, cell-based; conditions: J82, 72 h
[23] = Cytotoxicity against human MX1 cells after 3 days by InCell analyser assay; format: functional, cell-based; conditions: MX1, 72 h
[24] = Cytotoxicity against human BC2 cells after 3 days by InCell analyser assay; format: functional, cell-based; conditions: BC-2, 72 h
[25] = Cytotoxicity against human CESS cells after 3 days by InCell analyser assay; format: functional, cell-based; conditions: 72 h
[26] = Cytotoxicity against human BC1 cells after 3 days by InCell analyser assay; format: functional, cell-based; conditions: BC1, 72 h
[27] = Cytotoxicity against human U266B1 cells after 3 days by InCell analyser assay; format: functional, cell-based; conditions: U-266, 72 h
[28] = Cytotoxicity against human A7 cells after 3 days by InCell analyser assay; format: functional, cell-based; conditions: 72 h
[29] = Cytotoxicity against human HN5 cells after 3 days by InCell analyser assay; format: functional, cell-based; conditions: HN5, 72 h
[30] = Cytotoxicity against human SCLC3 cells after 3 days by InCell analyser assay; format: functional, cell-based; conditions: SCLC3, 72 h
[31] = Cytotoxicity against human DK-MG cells after 3 days by InCell analyser assay; format: functional, cell-based; conditions: 72 h
[32] = Cytotoxicity against human MT3 cells after 3 days by InCell analyser assay; format: functional, cell-based; conditions: MT-3, 72 h
[33] = Cytotoxicity against human H4 cells after 3 days by InCell analyser assay; format: functional, cell-based; conditions: H4, 72 h
[34] = Cytotoxicity against human ML2 cells after 3 days by InCell analyser assay; format: functional, cell-based; conditions: ML-2, 72 h
[35] = Cytotoxicity against human NALM1 cells after 3 days by InCell analyser assay; format: functional, cell-based; conditions: NALM1, 72 h
[36] = Cytotoxicity against human JAR cells after 3 days by InCell analyser assay; format: functional, cell-based; conditions: 72 h
[37] = Cytotoxicity against HOS cells after 3 days by InCell analyser assay; format: functional, cell-based; conditions: Homo sapiens, 72 h
[38] = Cytotoxicity against human Y79 cells after 3 days by InCell analyser assay; format: functional, cell-based; conditions: Y79, 72 h
[39] = Cytotoxicity against human RL cells after 3 days by InCell analyser assay; format: functional, cell-based; conditions: 72 h
[40] = Cytotoxicity against human GCT cells after 3 days by InCell analyser assay; format: functional, cell-based; conditions: 72 h
[41] = Cytotoxicity against human HT3 cells after 3 days by InCell analyser assay; format: functional, cell-based; conditions: HT-3, 72 h
[42] = Cytotoxicity against human C3A cells after 3 days by InCell analyser assay; format: functional, cell-based; conditions: 72 h
[43] = Cytotoxicity against human M14 cells after 3 days by InCell analyser assay; format: functional, cell-based; conditions: M14, 72 h
[44] = Toxicity in nude mouse allografted with mouse LISN cells assessed as body weight loss at 30 to 300 mg/kg, qd for 21 days measured during compound dosing; format: organism-based; conditions: 504 h

T2 sequence (P06213 28-758 limits assumed): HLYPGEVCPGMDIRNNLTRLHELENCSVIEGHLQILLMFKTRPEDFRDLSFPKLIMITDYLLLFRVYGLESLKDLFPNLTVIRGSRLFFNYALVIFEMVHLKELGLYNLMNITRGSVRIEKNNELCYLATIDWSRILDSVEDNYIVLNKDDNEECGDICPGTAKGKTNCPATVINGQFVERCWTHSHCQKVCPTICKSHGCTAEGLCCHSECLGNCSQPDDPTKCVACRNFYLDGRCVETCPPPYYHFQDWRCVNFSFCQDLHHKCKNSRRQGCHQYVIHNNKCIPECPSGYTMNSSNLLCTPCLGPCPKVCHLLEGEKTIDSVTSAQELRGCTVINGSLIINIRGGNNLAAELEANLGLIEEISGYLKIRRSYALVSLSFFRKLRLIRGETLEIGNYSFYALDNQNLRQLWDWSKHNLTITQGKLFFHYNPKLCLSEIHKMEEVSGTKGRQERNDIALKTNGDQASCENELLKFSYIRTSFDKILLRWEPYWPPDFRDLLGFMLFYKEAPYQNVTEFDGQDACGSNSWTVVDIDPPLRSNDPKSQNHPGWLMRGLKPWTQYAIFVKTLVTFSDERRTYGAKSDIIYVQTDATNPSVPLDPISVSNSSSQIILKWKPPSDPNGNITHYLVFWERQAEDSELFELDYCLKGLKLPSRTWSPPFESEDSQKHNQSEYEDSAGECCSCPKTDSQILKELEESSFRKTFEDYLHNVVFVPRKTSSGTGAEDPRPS
T2 sequence (P06213 763-1382 limits assumed): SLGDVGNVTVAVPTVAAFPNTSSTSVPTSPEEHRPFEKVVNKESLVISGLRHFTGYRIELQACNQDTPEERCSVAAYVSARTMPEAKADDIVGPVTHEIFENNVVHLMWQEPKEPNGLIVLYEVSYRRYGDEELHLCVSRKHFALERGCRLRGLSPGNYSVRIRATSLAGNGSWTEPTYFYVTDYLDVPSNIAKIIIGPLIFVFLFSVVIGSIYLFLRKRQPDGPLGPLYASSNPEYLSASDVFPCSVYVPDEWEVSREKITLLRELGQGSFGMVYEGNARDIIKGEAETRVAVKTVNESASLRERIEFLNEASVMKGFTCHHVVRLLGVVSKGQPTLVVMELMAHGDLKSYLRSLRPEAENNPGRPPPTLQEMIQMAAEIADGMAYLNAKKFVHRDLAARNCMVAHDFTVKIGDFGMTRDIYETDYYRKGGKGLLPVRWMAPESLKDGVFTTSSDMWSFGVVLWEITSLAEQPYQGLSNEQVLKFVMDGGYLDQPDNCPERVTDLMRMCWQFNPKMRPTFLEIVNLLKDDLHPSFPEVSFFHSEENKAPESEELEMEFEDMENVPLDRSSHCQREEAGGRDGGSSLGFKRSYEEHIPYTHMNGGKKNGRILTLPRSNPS

Compound: CCOc1cc(N2CCC(CCS(C)(=O)=O)CC2)c(C)cc1Nc1nccc(-c2c(-c3ccc(OC)c(C(=O)Nc4c(F)cccc4F)c3)nc3ccccn23)n1
Activity [5]: Non-Toxic

Compound: CCc1cc(Nc2nccc(-c3c(-c4ccc(OC)c(C(=O)Nc5c(F)cccc5F)c4)nc4ccccn34)n2)c(OC)cc1N1CCC(N2CCN(S(C)(=O)=O)CC2)CC1
Activity [6]: Non-Toxic
Activity [7]: Non-Toxic

Compound: COc1cc(N2CCC(N3CCCCC3)CC2)ccc1Nc1nccc(-c2c(-c3cccc(C(=O)Nc4c(F)cccc4F)c3)nc3ccccn23)n1
IC50 [8]: 1000 to 5000 nM
IC50 [9]: 1000 to 5000 nM
IC50 [10]: > 5000 nM
IC50 [11]: 1000 to 5000 nM
IC50 [12]: > 5000 nM
IC50 [13]: 1000 to 5000 nM
IC50 [14]: 1000 to 5000 nM
IC50 [15]: 1000 to 5000 nM
IC50 [16]: 1000 to 5000 nM
IC50 [17]: 1000 to 5000 nM
IC50 [18]: > 5000 nM
IC50 [19]: 1000 to 5000 nM
IC50 [20]: > 5000 nM
IC50 [21]: 1000 to 5000 nM
IC50 [22]: 1000 to 5000 nM
IC50 [23]: 1000 to 5000 nM
IC50 [24]: 1000 to 5000 nM
IC50 [25]: > 5000 nM
IC50 [26]: 1000 to 5000 nM
IC50 [27]: 1000 to 5000 nM
IC50 [28]: 1000 to 5000 nM
IC50 [29]: 1000 to 5000 nM
IC50 [30]: 1000 to 5000 nM
IC50 [31]: 1000 to 5000 nM
IC50 [32]: < 1000 nM
IC50 [33]: > 5000 nM
IC50 [34]: > 5000 nM
IC50 [35]: 1000 to 5000 nM
IC50 [36]: 1000 to 5000 nM
IC50 [37]: < 1000 nM
IC50 [38]: > 5000 nM
IC50 [39]: 1000 to 5000 nM
IC50 [40]: 1000 to 5000 nM
IC50 [41]: > 5000 nM
IC50 [42]: 1000 to 5000 nM
IC50 [43]: 1000 to 5000 nM

Compound: COc1cc(N2CCC(N3CCN(S(C)(=O)=O)CC3)CC2)ccc1Nc1nccc(-c2c(-c3cccc(C(=O)Nc4c(F)cccc4F)c3)nc3ccccn23)n1
Activity [44]: Non-Toxic

Further lines, results first:

IC50 [1]: < 100 nM
IC50 (Insulin receptor [2]): < 100 nM
Compound: COc1cc(C2CCN(CCS(C)(=O)=O)CC2)ccc1Nc1nccc(-c2c(-c3ccc(OC)c(C(=O)Nc4c(F)cccc4F)c3)nc3ccccn23)n1

IC50 (Insulin receptor [3]): < 100 nM
IC50 [1]: < 100 nM
IC50 (Insulin receptor [2]): < 100 nM
Compound: CCOc1cc(N2CCN(CCS(C)(=O)=O)CC2)c(C)cc1Nc1nccc(-c2c(-c3ccc(OC)c(C(=O)Nc4c(F)cccc4F)c3)nc3ccccn23)n1

IC50 [4]: < 100 nM
IC50 [1]: 100 to 1000 nM
IC50 (Insulin receptor [2]): 100 to 1000 nM
Compound: CCOc1cc(C2CCN(CCS(C)(=O)=O)CC2)ccc1Nc1nccc(-c2c(-c3ccc(OC(C)C)c(C(=O)Nc4c(F)cccc4F)c3)nc3ccccn23)n1

IC50 (Insulin receptor [3]): < 100 nM
IC50 [1]: < 100 nM
IC50 (Insulin receptor [2]): < 100 nM
Compound: COc1cc(N2CCC(CCS(C)(=O)=O)CC2)c(C)cc1Nc1nccc(-c2c(-c3ccc(OC)c(C(=O)Nc4c(F)cccc4F)c3)nc3cc(F)ccn23)n1

IC50 (Insulin receptor [2]): < 100 nM
Compound: CN(C)CCOc1cccc(Nc2nccc(-c3c(-c4cccc(C(=O)Nc5c(F)cc(F)cc5F)c4)nc4ccccn34)n2)c1

IC50 [4]: < 100 nM
IC50 [1]: 100 to 1000 nM
IC50 (Insulin receptor [2]): 100 to 1000 nM
Compound: CCOc1cc(N2CCC(N3CCN(S(C)(=O)=O)CC3)CC2)c(CC)cc1Nc1nccc(-c2c(-c3ccc(OCC)c(C(=O)Nc4c(F)cccc4F)c3)nc3ccccn23)n1
